Assay results reported in patent US12268210B2, “Performic acid on-site generator and formulator” (ECOLAB USA INC., priority 2015, dated 2025).

Key:
[1] = cited from earlier work; for half-life: shelf life stability, order of magnitude
SRB or APB populations = assay: Micro efficacy of field-generated PFA at a salt water disposal well (serial dilution bug bottles); assay type: cell-based; settings: for log reduction in microbial population: compared to incoming water, serial dilution bug bottles selecting for SRB or APB
Experimental: The peroxyformic acid generator according to the embodiments depicted in the figures having multiple inlets to provide formic acid blend (formic acid, catalyst and corrosion inhibitor) as well as hydrogen peroxide was evaluated under field conditions at a scale-up volume. The generator was used at a salt water disposal well.
The performance of the chemistry generated in the field according to Example 5 was evaluated for micro efficacy. PFA dosed at 250 ppm (˜25 ppm active) indicates at least reduction in microbial numbers equivalent to 2-3 logs, as shown in FIG. 13. In the figures the GB refers to site of treatment (gun barrel) measurement, whereas SWD refers to the disposal water measurement for micro efficacy.
The percentage reduction of microbial numbers compared to incoming water was also evaluated. Microbial numbers were monitored using traditional serial dilution bug bottles that select for SRB or APB populations.

## CC(=O)OO [peracetic acid, reference compound]
[1]
  half-life: weeks to months

## performic acid [PFA]
SRB or APB populations; PFA dosed at 250 ppm (~25 ppm active), GB (gun barrel) and SWD (disposal water) measurements, FIG. 13
  reduction in microbial numbers: 2-3 logs
SRB or APB populations; all results
  log reduction in microbial population: 2-3 log
SRB or APB populations; in some case
  log reduction in microbial population: 7 log
[1]; ambient temperature and pressure
  time to decompose into carbon dioxide and water: within a few hours
[1]
  half-life: minutes to hours
